Results on two substances are retold here after patent US20220018849A1, “SERINE HYDROLASE PROFILING ASSAY IN BIOTHERAPEUTICS” (Merck Sharp & Dohme Corp., priority 2020, published 2022).

The conditions of data set [1]: reference 6; cited from earlier work.
The nature of data set [2]: PS-80 degradation in protein formulations containing PLBL2 (unpublished results). The data set is classed as physicochemical. Particulars: protein formulations containing over 500 ppm of PLBL2.
Another data set concerns serine hydrolases. Briefly: Activity-based chemical proteomics approach (fluorophosphonate probe enrichment, LC-MS/MS). Particulars: HCCF, compared to other lipases.

Take phospholipase A2, group XV [Pla2g15]: in data set [1], the “concentration at which PS-80 and PS-20 are degraded (as low as)” value is listed as 0.3 ppm; the “concentration with significant impact on PS-80 degradation” value is listed as “below 1 ppm”.

Consider “phospholipase B domain containing 2 [Plbd2]”, for which, in data set [2], the PS-80 degradation entry was “without any PS-80 degradation”. Further, the “enrichment of the enzyme by the chemical probes” value is “not enriched” in the data set on serine hydrolases (listed as CHO PLBL2) and “limited enrichment” in the data set on serine hydrolases (listed as Plbl2).
